In paper PMC3834177 (Cancer Chemotherapy and Pharmacology, 2013):
Several values for one entry are separate records, joined by “and”; a condition that tells them apart may be missing. Equal entries are not always repeated. Entries after “also recorded” stand apart in the source; their conditions may differ.

Columns and labels:
[1] = Midostaurin PK when administered with rifampicin; conditions: for AUC(0-inf) / AUC(0-t) / Cmax / half-life: human, oral; for AUC(0-inf): AUC0–inf; for AUC(0-inf) / AUC(0-t) / Cmax: adjusted geometric mean; for AUC(0-t): AUC0–last; for Cmax: C max; for half-life: t 1/2, adjusted geometric mean
Experimental: These endogenous molecules served as exploratory biomarkers for CYP3A4 activity in vivo [21, 22].
A point estimate and the corresponding 90 % CI for the treatment effect (test vs reference) were calculated. These were anti-logged to obtain the GMR and respective 90 % CI. […] The median difference was estimated with the Hodges–Lehmann estimator and its respective exact two-sided 90 % CI. All formal comparative statistical analyses were performed using SAS software.
(§1) The concentration of ketoconazole in plasma was assessed using a validated LC–MS/MS assay with an LLOQ of 50.0 ng/mL (WuXi Pharmatech Co, Ltd, China). The concentration of rifampicin in plasma was measured using a validated LC–MS/MS assay with an LLOQ of 5.0 ng/mL (SGS, Cephac Europe, SAS). Plasma concentrations of midazolam and its metabolite 1′-hydroxymidazolam, which is generated by CYP3A4 and CYP3A5 in humans, were measured using a validated LC–MS/MS assay with an LLOQ of ≈0.100 ng/mL (SGS, Cephac Europe, SAS). The plasma concentration of 4β-hydroxycholesterol was measured using a validated LC–MS/MS assay with an LLOQ of 3.0 ng/mL (SGS, Cephac Europe, SAS). The concentrations of 6β-hydroxycortisol and cortisol in urine were determined using validated LC–MS/MS assays with an LLOQ of 10.0 ng/mL for 6β-hydroxycortisol and 1.0 ng/mL for cortisol. The ratio of 6β-hydroxycortisol to cortisol was subsequently calculated (SGS, Cephac Europe, SAS). See Supplementary Table 2 for detailed bioanalytical methods for all 3 studies.

[2] = Midostaurin PK when administered with ketoconazole; conditions: for AUC(0-inf): AUC0–inf; for AUC(0-inf) / Cmax: adjusted geometric mean; for Cmax: C max; for half-life: t 1/2, adjusted geometric mean
Experimental: According to the US Food and Drug Administration, ketoconazole 400 mg once daily is the recommended dose to evaluate DDIs involving CYP3A4 inhibition. [drawing 1]
(§2) Adverse events (AEs) were recorded during the study and up to 1 month (28 days) after the end of study. Volunteers remained at the clinic until AEs were common toxicity criteria (CTC) grade ≤1.
A point estimate and the corresponding 90 % CI for the treatment effect were calculated for the test treatment compared with the reference. These were anti-logged to obtain the point estimate and the 90 % CI for the geometric mean ratio (GMR) on the untransformed scale. […] All ANOVAs were performed using SAS software (SAS Institute Inc., Cary, NC, USA).
as §1

[3] = tested on: patients with ASM; conditions: cited from earlier work
[4] = Safety and tolerability, rifampicin study
[5] = tested on: human serum protein α1-acid glycoprotein (AAG); set-up: method as in PMID 11230495; conditions: cited from earlier work
[6] = Safety and tolerability, ketoconazole study; format: in vivo, human
Experimental: as §2

[7] = tested on: CYP3A4; assay: CYP3A4 activity in vivo in midazolam study (probe and endogenous biomarkers); set-up: species or system human
Experimental: Both inhibition and induction of midazolam clearance were investigated.
Similarly, blood and urine samples were taken on days 1, 3, 6, 7, 8, and 9 to measure the levels of 4β-hydroxycholesterol in plasma and the 6β-hydroxycortisol/cortisol ratio in urine, markers of CYP3A4 activity.
as §1

[8] = tested on: CYP3A4; conditions: patients with ASM, 1–2 months of daily midostaurin dosing; cited from earlier work
[9] = cited from earlier work
[10] = plasma, plasma, Placebo + midostaurin arm, rifampicin study, n = 20
[11] = plasma, plasma, Rifampicin + midostaurin arm, n = 20
[12] = human, plasma, oral, plasma, Ketoconazole + midostaurin arm, n = 18
[13] = human, plasma, oral, plasma, Placebo + midostaurin arm, ketoconazole study, n = 18
[14] = midostaurin 50 mg single dose, ketoconazole 400 mg daily
[15] = phase II, 100 mg twice daily, 26 patients with ASM
[16] = stage 1 analysis, global phase II study, ASM or mast cell leukemia
[17] = rifampicin study: Mido 50 mg + Rifa 600 mg (n = 25) or Mido 50 mg (n = 21)
[18] = ketoconazole study, both arms pooled (N = 47)
[19] = ketoconazole study: Mido 50 mg (n = 20) or Mido 50 mg + Keto 400 mg (n = 27)

Structure (SMILES): CO[C@@H]1[C@H](N(C)C(=O)c2ccccc2)C[C@H]2O[C@]1(C)n1c3ccccc3c3c4c(c5c6ccccc6n2c5c31)C(=O)NC4 [Midostaurin]
- increase in geometric mean of apparent clearance with rifampicin ([1]; compared with midostaurin administered alone): 16.9 fold
- AUC(0-inf) ([1]; plasma, plasma, Placebo + midostaurin arm (midostaurin 50 mg once), rifampicin study, n = 20): 22800 ng·h/mL
- AUC(0-inf) ([1]; plasma, plasma, Rifampicin + midostaurin arm (midostaurin 50 mg once, rifampicin 600 mg daily), n = 20): 1350 ng·h/mL
- AUC(0-t) [1, 10]: 22000 ng·h/mL
- AUC(0-t) [1, 11]: 1230 ng·h/mL
- Cmax [1, 10]: 1620 ng/mL
- Cmax [1, 11]: 440 ng/mL
- half-life [1, 10]: 23 h
- half-life [1, 11]: 5.14 h
- decrease in exposure by induction of CYP3A4 by rifampicin ([1]; midostaurin 50 mg single dose, rifampicin 600 mg daily): more than tenfold
- t max, median ([1]; plasma, Placebo + midostaurin arm, rifampicin study, n = 20): 1.02 h
- fraction of midostaurin metabolized by CYP3A4 (FmCYP3A4) ([2]; 1 − AUCinf (without ketoconazole)/AUCinf (with ketoconazole)): 91%
- DDI classification (PhRMA proposal for drugs biotransformed via CYP3A4) ([2]; co-administration with ketoconazole): strong
- elimination t 1/2 in the presence of ketoconazole ([2]; compared with placebo): prolonged
- AUC(0-inf) ([2]; human, plasma, oral, plasma, Ketoconazole + midostaurin arm (midostaurin 50 mg once, ketoconazole 400 mg daily), n = 18): 206000 ng·h/mL
- AUC(0-inf) ([2]; human, plasma, oral, plasma, Placebo + midostaurin arm (midostaurin 50 mg once), ketoconazole study, n = 18): 19800 ng·h/mL
- Cmax [2, 12]: 2890 ng/mL
- Cmax [2, 13]: 1590 ng/mL
- half-life [2, 12]: 90.6 h
- half-life [2, 13]: 23.3 h
- Tmax ([2]; human, plasma, oral, t max, median, plasma, Ketoconazole + midostaurin arm, n = 18): 1.5 h
- t max, Hodges–Lehmann estimate of median difference (90 % distribution-free CI) ([2]; ketoconazole + midostaurin vs placebo + midostaurin): 0.5 (0, 0.5) h
- increase in AUC (exposure) with ketoconazole compared with placebo [2, 14]: more than tenfold; also recorded: tenfold
- increase in C max with ketoconazole compared with placebo [2, 14]: ≈ 1.8 fold and 1.8 fold
- response rate according to Valent criteria ([3]; phase II investigator-initiated study, 100 mg twice daily, 26 patients with ASM): 69%
- good partial responses (number of patients) [3, 15]: 5
- incomplete remissions (number of patients) [3, 15]: 6
- major responses (number of patients) [3, 15]: 10
- minor partial responses (number of patients) [3, 15]: 3
- pure clinical responses (number of patients) [3, 15]: 4
- major response [3, 16]: 53%
- overall response rate [3, 16]: 60%
- diarrhea ([4]; rifampicin study, by arm): 33%
- nausea ([4]; rifampicin study, by arm): 38%
- participants who experienced an AE ([4]; rifampicin study, by arm): 62%
- Adverse event: Abdominal distension [4, 17]: 0 n (%)
- Adverse event: Any preferred term [4, 17]: 13 (61.9) n (%)
- Adverse event: Back pain [4, 17]: 1 (4.8) n (%)
- Adverse event: Chromaturia [4, 17]: 0 n (%)
- Adverse event: Cough [4, 17]: 0 n (%)
- Adverse event: Diarrhea [4, 17]: 7 (33.3) n (%)
- Adverse event: Discolored feces [4, 17]: 0 n (%)
- Adverse event: Dizziness [4, 17]: 0 n (%)
- Adverse event: Dry skin [4, 17]: 0 n (%)
- Adverse event: Dyspepsia [4, 17]: 0 n (%)
- Adverse event: Feeling cold [4, 17]: 0 n (%)
- Adverse event: Feeling hot [4, 17]: 0 n (%)
- Adverse event: Flatulence [4, 17]: 1 (4.8) n (%)
- Adverse event: Headache [4, 17]: 1 (4.8) n (%)
- Adverse event: Hot flush [4, 17]: 0 n (%)
- Adverse event: Nasopharyngitis [4, 17]: 2 (9.5) n (%)
- Adverse event: Nausea [4, 17]: 8 (38.1) n (%)
- Adverse event: Palpitations [4, 17]: 0 n (%)
- Adverse event: Pharyngolaryngeal pain [4, 17]: 0 n (%)
- Adverse event: Restlessness [4, 17]: 0 n (%)
- Adverse event: Rhinitis [4, 17]: 0 n (%)
- Adverse event: Sleep disorder [4, 17]: 0 n (%)
- Adverse event: Somnolence [4, 17]: 0 n (%)
- Adverse event: Vomiting [4, 17]: 1 (4.8) n (%)
- bound to AAG [5]: 88–98%
- tolerability ([6]; all 3 studies, single agent or in combination, healthy volunteers): generally well tolerated
- intensity of AEs ([6]; ketoconazole study, both arms pooled): mild
- participants who discontinued the study because of AEs [6, 18]: 15%
- serious AEs [6, 18]: no serious AEs
- Adverse event: Abdominal distension [6, 19]: 0 n (%)
- Adverse event: Any preferred term [6, 19]: 13 (65.0) n (%)
- Adverse event: Back pain [6, 19]: 0 n (%)
- Adverse event: Chromaturia [6, 19]: 0 n (%)
- Adverse event: Cough [6, 19]: 0 n (%)
- Adverse event: Diarrhea [6, 19]: 4 (20.0) n (%)
- Adverse event: Discolored feces [6, 19]: 0 n (%)
- Adverse event: Dizziness [6, 19]: 5 (25.0) n (%)
- Adverse event: Dry skin [6, 19]: 0 n (%)
- Adverse event: Dyspepsia [6, 19]: 0 n (%)
- Adverse event: Feeling cold [6, 19]: 2 (10.0) n (%)
- Adverse event: Feeling hot [6, 19]: 0 n (%)
- Adverse event: Flatulence [6, 19]: 0 n (%)
- Adverse event: Headache [6, 19]: 2 (10.0) n (%)
- Adverse event: Hot flush [6, 19]: 0 n (%)
- Adverse event: Nasopharyngitis [6, 19]: 0 n (%)
- Adverse event: Nausea [6, 19]: 7 (35.0) n (%)
- Adverse event: Palpitations [6, 19]: 0 n (%)
- Adverse event: Pharyngolaryngeal pain [6, 19]: 0 n (%)
- Adverse event: Restlessness [6, 19]: 0 n (%)
- Adverse event: Rhinitis [6, 19]: 1 (5.0) n (%)
- Adverse event: Sleep disorder [6, 19]: 0 n (%)
- Adverse event: Somnolence [6, 19]: 0 n (%)
- Adverse event: Vomiting [6, 19]: 1 (5.0) n (%)
- inhibition or induction of CYP3A4 in vivo ([7]; humans, single dose 100 mg and 50 mg twice daily): neither an inhibitor nor inducer; also recorded: neither a CYP3A4 inhibitor nor a CYP3A4 inducer
- effect on concentrations of midazolam and 1′-hydroxymidazolam ([7]; single or multiple doses of midostaurin): did not appreciably affect
- change in level of endogenous CYP3A4 biomarker 4-β-hydroxycholesterol in plasma [8]: significant increase
- free midostaurin concentrations [9]: 0.02 to 1 µM
- major pathway for elimination [9]: Fecal excretion
- period of time-linear accumulation ([9]; daily oral dosing): 3 to 6 days
- time to new plateau of plasma concentrations ([9]; daily oral dosing): 2–3 weeks
- mean apparent volume of distribution ([9]; healthy volunteers): 111 L
- time of peak plasma concentrations postdose ([9]; human, in vivo, po): 1 to 3 h
- dose proportionality of C max and AUC ([9]; single-dose administration): increased proportionally with dose following single-dose administration of midostaurin between 25- and 50-mg doses but under proportionally between 50- and 100-mg doses
